For experiment [1], the target named is T1, telomerase (MCF-7 cell lysates) (Homo sapiens, UniProt O14746).
T1 construct: endogenous in cells; host or cells: MCF-7
Put plainly: TRAP assay in cell lysates (PCR-based telomerase activity assay). Type of experiment: biochemical. Particulars: TRAP assay. An excerpt:
In developing a preliminary structural activity relationship (SAR) for the chrologs, we divided the structure of the pyran into four main components: (1)C-2 substituents (carboxylic acid of chrolactomycin); (2) C-6 substituents (chrolactomycin macrolide loop); (3) C-3 substituents (fused γ-lactone of chrolactomycin) and (4) inclusion of the exocyclic methylene group. We carried out systematic modifications of each structural unit and evaluated the effects on telomerase activity as measured by a PCR-based telomerase activity assay (TRAP assay).^16
Telomeric Repeat Amplification Protocol Assay. The telomeric repeat amplification protocol (TRAP) assay was performed using the TRAPeze RT Telomerase Detection Kit (EMD Millipore) and iTaq DNA polymerase (Bio-Rad) according to the manufacturer's protocol.
Cell Lysate TRAP Analysis. MCF-7, HeLa, ACHN, MDA-MB231 and A549 cells were cultured in DMEM media supplemented with 10% Fetal Bovine Serum (FBS), 1% pen/strep and with 5% CO2 and 37° C. Cells were plated in 2×T75 flasks and cultured for 3 days. Flasks were rinsed twice with PBS and treated with 0.05% trypsin-EDTA (Thermo Fisher) to detach cells. […] Cell extracts were transferred to microcentrifuge tubes, 200 μl/tube, and centrifuged at 12,000×g for 20 min at 4° C. to remove cell debris. Stock solutions of compounds were made in DMSO with a concentration of 100 mM and a […] dilution was performed in DMSO in a 96-well plate to produce compound solutions of 100, 10, 1, 0.1, 0.01, and 0.001 mM (1000× of the final concentration). The 1000× stock solutions of the compound samples were transferred to a 96-well plate using the Echo 550 (Labcyte) and then diluted with the cell extracts to yield final compound concentrations of 100, 10, 1, 0.1, 0.01, and 0.001 μM. The plate was covered and shaken at room temperature for 30 min. For TRAPeze reactions, a “master mix” was prepared according to the TRAPeze protocol, containing 5 μl of the TRAPeze reaction mix; 0.4 μl Taq polymerase; 17.6 μl PCR grade, nuclease-free water. The master mix and treated cell extracts were transferred using the Mosquito Crystal Liquid Handling System (TTP Labtech) into separate wells in a white, 384-well RT-PCR plate. Each well contained 1.2 μl of the master mix and 1.2 μl of the treated cell extract to give a final volume of 2.4 μl, with two duplicates for each sample. The RT-PCR plate was then sealed and centrifuged for 5 min. A sample containing only CHAPS Lysis Buffer was included as negative control. The TSR8 standards were included to generate a standard curve. Samples were amplified in a CFW384 RT-PCR (BioRad) detection system with PCR parameters of 30 min at 30° C. for 1 cycle, 2 min at 95° C. for 1 cycle, and then 45 cycles of 15 s at 94° C., 60 s at 59° C., and 10 s at 45° C. Real-time fluorescent data was obtained during the 10 s at 45° C. step. The number of cycles at which the fluorescence level reached a threshold (Ct) was averaged between the duplicates for each sample. Using a calibration curve obtained from the TSR8 standards, a linear equation was obtained to convert the Ct values into arbitrary telomerase activity units, which were plotted as a function of compound concentration to construct dose-response curves and calculate IC50.

The test system of another experiment is tcTERT. Description: Protease digestion and mass spectrometry of treated tcTERT. The class given is binding, Tribolium castaneum. To be noted: proteolysis and tandem mass spectrometry. As to the method:
Protease Digestion and Mass Spectrometry Analysis. tcTERT (50 μg, ˜600 pmol) was treated with chrolactomycin, NU-1, helenalin, costunolide or DMSO for 1 hr at 37° C. The reaction was diluted with ammonium bicarbonate buffer (pH 8.0), then reduced for 30 min at 56° C. with 10 mM DTT. After cooling to 23° C., the protein was alkylated with 25 mM iodoacetamide for 30 min at 23° C. in the dark, followed by trypsin digestion (2.5 μg, Promega) overnight at 37° C. Digested peptides (˜2 pmol) were injected onto a self-packed precolumn (4 cm POROS10R2) and eluted into the mass spectrometer (LTQ Orbitrap Velos, Thermo Fisher). Peptides were subjected to MS^2 by CAD (electron multiplier detection, relative collision energy 35%, q=0.25).

The mark [2] stands for this setting: MCF-7 cell lysates, read-out: IC50.
[3] abbreviates: Table 1, C-2 and C-6 groups, read-out: IC50.
[4] abbreviates: Table 2, C-3 group, read-out: IC50.

pIC50: −log10 of the molar value. Read-outs that look alike come from different tables or passages of the source.

T1 sequence (O14746 whole entry): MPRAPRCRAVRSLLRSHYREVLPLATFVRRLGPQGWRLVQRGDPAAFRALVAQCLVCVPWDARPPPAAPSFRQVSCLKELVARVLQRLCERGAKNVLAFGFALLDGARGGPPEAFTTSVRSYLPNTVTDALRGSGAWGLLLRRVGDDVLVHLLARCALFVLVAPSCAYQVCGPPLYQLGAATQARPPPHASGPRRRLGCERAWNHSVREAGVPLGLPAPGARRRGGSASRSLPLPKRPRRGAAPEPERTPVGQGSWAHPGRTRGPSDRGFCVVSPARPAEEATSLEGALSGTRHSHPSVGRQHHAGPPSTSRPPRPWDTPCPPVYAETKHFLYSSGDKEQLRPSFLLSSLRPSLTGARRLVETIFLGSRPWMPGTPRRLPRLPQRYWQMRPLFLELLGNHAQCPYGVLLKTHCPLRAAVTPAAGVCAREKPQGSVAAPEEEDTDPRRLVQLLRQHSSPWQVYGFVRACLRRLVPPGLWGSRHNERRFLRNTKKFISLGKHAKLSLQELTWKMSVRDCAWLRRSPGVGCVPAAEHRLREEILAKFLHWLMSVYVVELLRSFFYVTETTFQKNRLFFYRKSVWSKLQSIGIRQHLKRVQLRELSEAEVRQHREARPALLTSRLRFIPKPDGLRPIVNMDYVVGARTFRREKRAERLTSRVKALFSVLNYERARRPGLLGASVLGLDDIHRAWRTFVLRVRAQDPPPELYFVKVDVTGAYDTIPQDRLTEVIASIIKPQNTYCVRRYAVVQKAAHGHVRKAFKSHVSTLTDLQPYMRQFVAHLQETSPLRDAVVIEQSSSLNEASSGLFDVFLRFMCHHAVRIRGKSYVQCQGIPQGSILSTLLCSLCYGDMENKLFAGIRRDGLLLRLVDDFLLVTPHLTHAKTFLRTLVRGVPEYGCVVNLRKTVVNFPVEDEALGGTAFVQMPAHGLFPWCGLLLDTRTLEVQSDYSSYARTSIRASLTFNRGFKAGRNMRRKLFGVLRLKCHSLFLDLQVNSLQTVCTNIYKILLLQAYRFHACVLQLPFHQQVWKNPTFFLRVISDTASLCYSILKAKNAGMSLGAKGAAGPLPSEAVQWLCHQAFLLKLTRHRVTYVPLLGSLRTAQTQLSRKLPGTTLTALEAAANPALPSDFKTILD
T1 sequence (O60832 whole entry partner): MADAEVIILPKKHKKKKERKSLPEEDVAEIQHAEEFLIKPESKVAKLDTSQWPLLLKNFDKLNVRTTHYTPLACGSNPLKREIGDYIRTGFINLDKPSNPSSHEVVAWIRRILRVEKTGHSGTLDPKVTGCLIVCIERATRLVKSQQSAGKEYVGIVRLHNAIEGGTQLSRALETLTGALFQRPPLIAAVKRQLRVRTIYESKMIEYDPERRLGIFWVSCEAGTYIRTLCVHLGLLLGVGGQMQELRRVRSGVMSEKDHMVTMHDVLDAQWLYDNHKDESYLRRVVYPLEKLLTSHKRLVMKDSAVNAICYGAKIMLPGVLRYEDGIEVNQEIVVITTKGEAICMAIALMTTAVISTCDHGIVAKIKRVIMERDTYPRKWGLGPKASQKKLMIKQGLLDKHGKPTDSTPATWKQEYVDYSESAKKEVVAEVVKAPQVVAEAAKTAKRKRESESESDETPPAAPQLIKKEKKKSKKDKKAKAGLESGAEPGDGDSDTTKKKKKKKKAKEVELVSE
T1 sequence (Q9NPE3 whole entry partner): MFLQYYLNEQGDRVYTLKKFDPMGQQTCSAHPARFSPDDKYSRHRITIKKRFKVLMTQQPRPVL
T1 sequence (Q9NX24 whole entry partner): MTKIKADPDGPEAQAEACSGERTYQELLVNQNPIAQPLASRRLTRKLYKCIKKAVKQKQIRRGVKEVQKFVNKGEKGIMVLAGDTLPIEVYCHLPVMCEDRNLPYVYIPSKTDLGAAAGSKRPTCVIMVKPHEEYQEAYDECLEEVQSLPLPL
T1 sequence (Q9NY12 whole entry partner): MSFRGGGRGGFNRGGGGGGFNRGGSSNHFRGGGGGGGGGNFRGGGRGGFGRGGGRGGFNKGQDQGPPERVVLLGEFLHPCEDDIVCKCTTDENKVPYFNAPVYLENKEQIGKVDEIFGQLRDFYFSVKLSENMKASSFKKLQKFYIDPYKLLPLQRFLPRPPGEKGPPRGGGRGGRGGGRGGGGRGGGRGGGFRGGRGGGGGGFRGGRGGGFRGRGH
T1 sequence (Q9BUR4 whole entry partner): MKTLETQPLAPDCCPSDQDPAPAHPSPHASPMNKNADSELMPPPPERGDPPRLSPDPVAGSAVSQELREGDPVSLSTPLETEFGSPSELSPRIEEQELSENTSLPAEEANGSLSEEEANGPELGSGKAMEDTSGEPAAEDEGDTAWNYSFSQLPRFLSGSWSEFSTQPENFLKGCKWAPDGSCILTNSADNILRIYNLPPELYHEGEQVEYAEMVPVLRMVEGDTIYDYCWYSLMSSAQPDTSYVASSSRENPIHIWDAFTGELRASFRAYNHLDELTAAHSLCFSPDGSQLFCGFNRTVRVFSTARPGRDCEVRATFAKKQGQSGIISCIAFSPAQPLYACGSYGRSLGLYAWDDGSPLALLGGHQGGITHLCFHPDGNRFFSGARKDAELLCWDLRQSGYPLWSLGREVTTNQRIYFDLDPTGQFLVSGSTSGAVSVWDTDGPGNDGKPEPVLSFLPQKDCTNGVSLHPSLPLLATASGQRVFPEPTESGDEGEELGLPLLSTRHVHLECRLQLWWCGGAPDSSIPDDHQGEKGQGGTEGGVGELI

The pIC50 is the IC50 on a negative log10 scale, so that one unit is a factor of ten. On to `C=C1C(=O)[C@](C)(C(=O)OC)[C@H](CCc2ccc(NC(C)=O)cc2)O[C@@H]1C` (racemic) [Compound 4a, (±) methyl (2S,3R,6R)-2-(4-acetamidophenethyl)-3,6-dimethyl-5-methylene-4-oxotetrahydro2H-pyran-3-carboxylate], for which the pIC50 in experiment [1] (setting [2]), in experiment [1] (setting [3]) and in experiment [1] (setting [4]) was 5.82 in each case.

For `C=C1C(=O)[C@](C)(C(=O)OC)[C@H](CCc2ccccc2)O[C@@H]1C` (racemic) [Compound 4b, (±) methyl (2S,3R,6R)-3,6-dimethyl-5-methylene-4-oxo-2-phenethyltetrahydro-2H-pyran-3 carboxylate], the negative logarithm of the IC50 (pIC50) in experiment [1] (setting [3]) was below 4.00. On the same count and under the same terms, the same measure for `C=C1C(=O)[C@](C)(C(=O)OC)[C@H](CC(C)C)O[C@@H]1C` (racemic) [Compound 4c, (±) methyl (2S,3R,6R)-2-isobutyl-3,6-dimethyl-5-methylene-4-oxotetrahydro-2H-pyran-3 carboxylate]: below 4.00; for `C=C1C(=O)[C@](C)(C(=O)OC)[C@H](CCc2ccc(F)cc2)O[C@@H]1C` (racemic) [Compound 4d, (±) methyl (2S,3R,6R)-2-(4-fluorophenethyl)-3,6-dimethyl-5-methylene-4-oxotetrahydro-2H pyran-3-carboxylate]: 4.38; for `C=C1C(=O)[C@@](C)(C(=O)OC)[C@@H](CCc2ccc(C(F)(F)F)cc2)O[C@H]1C` (racemic) [Compound 4e, (±) methyl (2S,3R,6R)-3,6-dimethyl-5-methylene-4-oxo-2-(4(trifluoromethyl)phenethyl)tetrahydro-2H-pyran-3-carboxylate]: 4.26. The same measure, in the same setting: the same measure for `C=C1C(=O)[C@](C)(C(=O)OC)C(CCc2ccc(OC)cc2)O[C@@H]1C` (mixture of isomers) [Compound 4f, (±) methyl (2S,3R,6R)-2-(4-methoxyphenethyl)-3,6-dimethyl-5-methylene-4-oxotetrahydro2H-pyran-3-carboxylate]: 4.21; for `C=C1C(=O)[C@@](C)(C(=O)OC)[C@@H](CCc2cccc(NC(C)=O)c2)O[C@H]1C` (racemic) [Compound 4g, (±) methyl (2S,3R,6R)-2-(3-acetamidophenethyl)-3,6-dimethyl-5-methylene-4-oxotetrahydro2H-pyran-3-carboxylate]: 4.96; for `C=C1C(=O)[C@@](C)(C(=O)OC)[C@@H](CCc2cccc(F)c2)O[C@H]1C` (racemic) [Compound 4h, (±) methyl (2S,3R,6R)-2-(3-fluorophenethyl)-3,6-dimethyl-5-methylene-4-oxotetrahydro-2H pyran-3-carboxylate]: below 4.00. The same measure, in the same setting: the same measure for `C=C1C(=O)[C@@](C)(C(=O)OC)[C@@H](CCc2ccc(NC(C)=O)cc2)O[C@H]1CC(C)C` (racemic) [Compound 4i, (±) methyl (2S,3R,6R)-2-(4-acetamidophenethyl)-6-isobutyl-3-methyl-5-methylene-4oxotetrahydro-2H-pyran-3-carboxylate]: 4.35.

As to `C=C1C(=O)[C@@](C)(C(=O)OC)[C@@H](CCc2ccc(NC(C)=O)cc2)O[C@H]1CCc1ccccc1` (racemic) [Compound 4j, (±) methyl (2S,3R,6R)-2-(4-acetamidophenethyl)-3-methyl-5-methylene-4-oxo-6phenethyltetrahydro-2H-pyran-3-carboxylate], the negative-log IC50 (pIC50) in experiment [1] (setting [3]) was below 4.00.

As to `C=C1C(=O)[C@@](C)(C(=O)OC(C)C)[C@@H](CCc2ccc(NC(C)=O)cc2)O[C@H]1C` (racemic) [Compound 4k, (±) isopropyl (2S,3R,6R)-2-(4-acetamidophenethyl)-3,6-dimethyl-5-methylene-4oxotetrahydro-2H-pyran-3-carboxylate], in experiment [1] (setting [4]), the pIC50 was 4.35. With `C=C1C(=O)[C@@](C)(C(=O)OCC2CC2)[C@@H](CCc2ccc(NC(C)=O)cc2)O[C@H]1C` (racemic) [Compound 4l, (±) cyclopropylmethyl (2S,3R,6R)-2-(4-acetamidophenethyl)-3,6-dimethyl-5-methylene-4oxotetrahydro-2H-pyran-3-carboxylate], the negative-log IC50 (pIC50) in experiment [1] (setting [4]) is 4.12. As for `C=C1C(=O)[C@](C)(C(=O)OCc2ccccc2)C(CCc2ccc(NC(C)=O)cc2)O[C@@H]1C` (mixture of isomers) [Compound 4m, (±) benzyl (2S,3R,6R)-2-(4-acetamidophenethyl)-3,6-dimethyl-5-methylene-4-oxotetrahydro2H-pyran-3-carboxylate], the pIC50 in experiment [1] (setting [4]) is 4.46.

In turn, `C=C1C(=O)[C@@](C)(C(=O)OCCCC)[C@@H](CCc2ccc(NC(C)=O)cc2)O[C@H]1C` (racemic) [Compound 4n, (±) butyl (2S,3R,6R)-2-(4-acetamidophenethyl)-3,6-dimethyl-5-methylene-4-oxotetrahydro2H-pyran-3-carboxylate] gave a pIC50 in experiment [1] (IC50, Table 2, C-3 group) of 4.07. On to `C=C1C(=O)[C@@](CC)(C(=O)OC)[C@@H](CCc2ccc(NC(C)=O)cc2)O[C@H]1C` (racemic) [Compound 4q, (±) methyl (2S,3R,6R)-2-(4-acetamidophenethyl)-3-ethyl-6-methyl-5-methylene-4oxotetrahydro-2H-pyran-3-carboxylate], for which the pIC50 in experiment [1] (setting [4]) is 4.82. The same measure, in the same setting: the same measure for `C=C1C(=O)[C@@](C(=O)OC)(C(C)C)[C@H](CCc2ccc(NC(C)=O)cc2)O[C@@H]1C` (racemic) [Compound 4r, (±) methyl (2S,3R,6R)-2-(4-acetamidophenethyl)-3-isopropyl-6-methyl-5-methylene-4oxotetrahydro-2H-pyran-3-carboxylate]: 4.21. Take `C=C1C(=O)C(C)(C(=O)OC)C(CCc2ccc(NC(C)=O)cc2)OC1C` (single isomer, unassigned) [enantiopure para N-acetylphenethyl analogue]: in experiment [1] (setting [2]), the negative-log IC50 (pIC50) was 6.05.

Consider `C=C1C(=O)C(C)(C(=O)OC)C(CCc2ccc(NC(C)=O)cc2)OC1C` (single isomer, unassigned) [opposite antipode], for which, in experiment [1] (setting [2]), the pIC50 was 5.35. As for `C=C1C(=O)[C@](C)(C(=O)OCCOC)[C@@H](CCc2ccc(NC(C)=O)cc2)O[C@H]1C` [Compound 4p], in experiment [1] (setting [4]), the negative logarithm of the IC50 (pIC50) is 4.60. On to `C=C1C(=O)O[C@@H]2/C=C(\C)CC/C=C(\C)CC[C@@H]12` [costunolide], for which, in the experiment with tcTERT, the “adduct formation with tcTERT peptides” value was “no adduct formation”. On to `C=C1C(=O)O[C@@H]2C[C@@H](C)[C@@H]3C=CC(=O)[C@@]3(C)[C@@H](O)[C@H]12` [helenalin], for which the “adduct formation with tcTERT peptides” value in the experiment on tcTERT was “no adduct formation”.

As for `C=C1C(=O)[C@]2(C)C(=O)O[C@@]34C[C@H](C)C(C(=O)O)=C[C@@H]3CCC[C@@H](C)C[C@@H](C)[C@H]1O[C@H]24` [okilactomycin, reference compound], the pIC50 in experiment [1] (setting [2]) was 5.68.

Values taken from patent publication US11518750B2, “3-methylideneoxan-4-one compounds and substituted derivatives thereof as inhibitors of telomerase” (NORTHWESTERN UNIVERSITY, priority 2019, dated 2022).
